Data as given in patent US20250339426A1, “GCN2 MODULATOR FOR TREATING CANCER” (HIBERCELL, INC., priority 2022, published 2025).

Key:
[1] = system: LNCaP (human prostate cancer cells); assay: In vivo tumor growth inhibition, LNCaP xenograft; set-up: species or system NOD SCID mice; conditions: ≥3 mg/kg twice daily oral
Method: LNCaP (human prostate cancer cells): Male 6-8 weeks old NOD SCID mice were inoculated subcutaneously on the right flank with LNCaP tumor cells (1×10^7) in 0.1 ml with Matrigel (1:1) in RPMI1640 with 10% fetal bovine serum (FBS) for tumor development. The treatments were started when the mean tumor size reached approximately 207 mm^3 at Day 14 post inoculation and continued until end of study by twice daily oral gavage dosing of HC-7366 at listed doses (vehicle, 0.3 mg/kg HC-7366, 1 mg/kg HC-7366, 3 mg/kg HC-7366, 10 mg/kg HC-7366, or 30 mg/kg HC-7366 twice daily, FIG. 14).
(§1) [formula] • 2.2.2 Tumor Measurements: The measurement of tumor size was conducted three times weekly with a caliper and recorded. The tumor volume (mm^3) was estimated using the formula: TV=a×b^2/2, where “a” and “b” is long and short diameters of a tumor, respectively. Tumor volume was calculated using the formula [tumor volume (mm^3)=π/6×length×width^2).
(§2) Regression was calculated using the formula=100×ΔT/T initial, if ΔT<0. Animals with 0 mm^3 tumor volume (no measurable tumor) for three consecutive measurements were considered as complete responders and animals with 50% tumor regressions were partial responders.

[2] = system: Kasumi-1 (human AML cancer cells); assay: In vivo tumor growth inhibition, Kasumi-1 xenograft; set-up: species or system CB17 SCID mice
Method: Kasumi-1 (human AML cancer cells): Female 6-8 weeks old CB17 SCID mice were inoculated subcutaneously on the right flank with […] tumor cells (1×10^7) in RPMI 1640 without serum for tumor development. The treatments were started when the mean tumor size reached approximately 151 mm^3 at Day 29 after cell inoculation and continued until end of study by twice daily oral gavage dosing of HC-7366 at listed doses (vehicle, 3 mg/kg HC-7366, or 30 mg/kg HC-7366, FIG. 18).
as §1, §2

[3] = system: ASNS, PHGDH, PUMA, PSAT1, S100A8/A9 in MV4-11 tumors; assay: Tumor IHC, MV4-11 tumors (venetoclax combination study); assay type: in vivo, BALB/c nude mice; conditions: end-of-study tumors
Method: Immunohistochemical analysis was carried out on tumors that were collected at the end of the study described in Example 6. Formalin-fixed paraffin-embedded samples were sectioned at 5 μm thickness and mounted on Superfrost Plus microscope slides (Fisher Scientific). All immunohistochemical (IHC) staining was performed on Bond Rx auto-stainer (Leica Biosystems) using the conventional TSA-amplified detection system. Primary antibodies used were as follows: a-ASNS (Cell Signaling Technology #92479), a-PUMA (Cell Signaling Technology #98672), a-PSAT1 (Proteintech #10501-1-AP), a-PHGDH (Proteintech #14719-1-AP), HIF-1a-Novus Biologicals NB 100-479, HIF-2a-Novus Biologicals NB100-122SS, and GLUT-1-EMB Biosciences 07-1401. TSA-conjugated Alexa488, Alexa 568 and Alexa647 fluorophores from Invitrogen (#B40953, #B40956, and #B40958) were used at 1:500 dilution. Slides were counterstained with DAPI and cover slipped using Mowiol anti-fade mounting media (Sigma #D2522).
Slides were imaged with Aperio Versa 200 (Leica Biosystems) whole-slide scanner using 10×/0.32NA objective, and the data were analyzed using custom-written macros in ImageJ/FIJI (NIH). Briefly, 150 μm of outer edges of the tumor sections and necrotic regions (determined by lack of 4′,6-diamidino-2-phenylindole (DAPI) signal or presence of condensed DNA) were eliminated from the analysis. Gaussian-blurred DAPI channel was used to measure the area of the tumor tissue. Scans of immune-staining were processed to remove background, then total intensity value above appropriate threshold levels was measured and normalized to tissue area. All graphing and statistics (one-way ANOVA and pair-wise comparisons) were performed using Prism GraphPad.
Slides were deparaffinized, rehydrated and heat mediated antigen retrieval was conducted with AR6 buffer (Akoya). Slides were blocked with Roche diagnostics antibody diluent (Fisher) and stained with primary antibodies for 1 hr at 110 rpm. After washing, horseradish peroxidase (HRP)-conjugated secondary antibodies were added for 10 mins at 110 rpm. After washing, OPAL detection dye (Akoya) was added for a static 10 min incubation. Antigen retrieval was performed post OPAL staining, followed by DAPI staining and slide covering. Multispectral images were captured on the Polaris imaging system (Akoya) and spectral unmixing, cell segmentation and phenotyping was performed using Inform Tissue Finder software (Akoya). Imaging data was converted into .csv files and imported into Flowjo for analysis of S100A8/A9 percent positive cells. Primary antibodies used were rabbit anti-human/mouse S100A8/A9 (Clone RM1038, Abcam ab288715, paired with Opal 570).
Immunohistochemical analysis was performed on the tumors according to the procedures described in Example 7.

[4] = system: FaDu cells; assay: Metabolomics in wild type and GCN2 CRISPR knockout FaDu cells; assay type: cell-based, human; conditions: 0.1 μM
Method: Wild type and GCN2 CRISPR knockout FaDu cells were treated with 0.1 μM for 9 hours, and metabolomics were evaluated.

[5] = system: CTG-2774; assay: Ex vivo AML PDX cell viability (Cell Titer Glo); assay type: cell-based; conditions: Homo sapiens, 144 h; PDX model CTG-2774, 6 days; read-out: HC-7366 EC50
Method: (§3) . Cell viability was assayed after treating PDX models with DMSO or HC-7366 for 6 days using a plate-based luminescence assay (Cell Titer Glo). […]
(§4) EC50 values were calculated to the bottom of the curve and are provided below. Viability curves are provided for the models CTG-2229 (FIG. 81), CTG-3680 (FIG. 82), CTG-3667 (FIG. 83), CTG-2456 (FIG. 84), CTG-2457 (FIG. 85), and CTG-2454 (FIG. 86).

[6] = system: CTG-2234; assay: Ex vivo AML PDX cell viability (Cell Titer Glo); assay type: cell-based; conditions: Homo sapiens, 144 h; PDX model CTG-2234, 6 days; read-out: HC-7366 EC50
Method: as §3, §4

[7] = HC-7366 3 mg/kg, alone or with venetoclax

## CNC(=O)c1ncn2cc(-c3c(F)ccc(NS(=O)(=O)c4cc(Cl)cnc4OC)c3F)ncc12 [HC-7366, 6-(3-((5-chloro-2-methoxypyridine)-3-sulfonamido)-2,6-difluorophenyl)-N-methylimidazo[1,5-a]pyrazine-1-carboxamide]
[1]
  tumor growth inhibition: 61-65%
[2]; 3 mg/kg twice daily oral
  TGI: 73%
[2]; 30 mg/kg twice daily oral
  TGI: 77%
[3]
  PSAT1 levels: did not change
[3]; [7]
  ASNS by IHC: potent activation
  PHGDH by IHC: potent activation
  PUMA by IHC: potent activation
[3]; single agents and combination
  S100A8/A9 levels: significantly reduced
[4]; GCN2 dependent manner
  ATF4: induced
[4]; wild type FaDu cells, 9 h, GCN2-dependent
  level of many amino acids: enhanced level
[5]
  EC50: 96.9 µM
[6]
  EC50: 65.5 µM
